Measured values taken from ChEMBL document CHEMBL3098064, “Sortase A inhibitory metabolites from the roots of Pulsatilla koreana” (Bioorg Med Chem Lett, 2014).

Experiment: Inhibition of Streptococcus mutans OMZ65 recombinant sortase A delta-40 mutant using Dabcyl-QALPETGEE-Edans as substrate after 1 hr by fluorescence spectrophotometry

**Q.** For `COc1cc([C@H]2Oc3c(OC)cc(CCCO[C@@H]4O[C@H](CO)[C@@H](O)[C@H](O)[C@H]4O)cc3[C@H]2CO)ccc1O`, which IC50 is on record?
**A.** 37.3 µM

**Q.** Which IC50 does the source give for `COc1cc([C@H]2Oc3c(OC)cc(CCCO)cc3[C@H]2CO[C@@H]2O[C@H](CO)[C@@H](O)[C@H](O)[C@H]2O)ccc1O` here?
**A.** 82.8 µM

**Q.** With `COc1cc(C[C@@H]2COC(=O)[C@@]2(Cc2ccc(O)c(OC)c2)O[C@@H]2O[C@H](CO)[C@@H](O)[C@H](O)[C@H]2O)ccc1O` as the compound, how does the IC50 read?
**A.** 41.2 µM

**Q.** For `O=C(/C=C/c1ccc(O)c(O)c1)O[C@@H](Cc1ccc(O)c(O)c1)C(=O)O`, which IC50 is on record?
**A.** 20.1 µM

**Q.** Which IC50 does the source give for `CO[C@@H](Cc1ccc(O)cc1)C(=O)O` here?
**A.** > 100 µM

**Q.** Which IC50 does the source give for `COc1cc(C[C@@H]2COC(=O)[C@]2(O)Cc2ccc(O)c(OC)c2)ccc1O` here?
**A.** > 100 µM

**Q.** With `COc1cc([C@H]2Oc3c(OC)cc(CCCO)cc3[C@H]2CO)ccc1O` as the compound, how does the IC50 read?
**A.** 35.9 µM

**Q.** Which IC50 does the source give for `O=C(/C=C/c1ccc(O)c(O)c1)O[C@H](C(=O)O)[C@@H](OC(=O)/C=C/c1ccc(O)c(O)c1)C(=O)O` here?
**A.** 60 µM

**Q.** For `COc1cc([C@@H]2OC[C@@H]3[C@H]2CO[C@H]3c2ccc(O)c(OC)c2)ccc1O` [(+)-PINORESINOL], which IC50 is on record?
**A.** 67.7 µM

**Q.** Which IC50 does the source give for `O=C(O)/C=C/c1ccc(O)c(O)c1` [CAFFEIC ACID] here?
**A.** 20.2 µM

**Q.** For `COc1cc(/C=C/C(=O)O)ccc1O` [FERULATE], which IC50 is on record?
**A.** > 100 µM

**Q.** With `COc1cc(C[C@H]2COC(=O)[C@@H]2Cc2ccc(O)c(OC)c2)ccc1O` [MATAIRESINOL] as the compound, how does the IC50 read?
**A.** > 100 µM

**Q.** With Para-Hydroxymercuribenzoic acid as the compound, how does the IC50 read?
**A.** 35.1 µM
